Measured values as given in PubChem BioAssay (NCI).
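Each compound was tested at five concentrations against cells in 96-well plates for 48 hours. The concentration for 50% growth inhibition is given as GI50. At the TGI there is no net growth.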

Tests used:
Test in all cases: NCI-60 cell line screen, 48 h
HCT-15 colon = tested on: HCT-15 colon
HT29 colon = tested on: HT29 colon
MOLT-4 leukemia = tested on: MOLT-4 leukemia
NCI-H460 lung = tested on: NCI-H460 lung
RPMI-8226 leukemia = tested on: RPMI-8226 leukemia
RXF 393 renal = tested on: RXF 393 renal
SK-MEL-2 melanoma = tested on: SK-MEL-2 melanoma
U251 CNS = tested on: U251 CNS
KM12 colon = tested on: KM12 colon
PC-3 prostate = tested on: PC-3 prostate

| SMILES | TGI (HCT-15 colon) [µM] | TGI (HT29 colon) [µM] | TGI (MOLT-4 leukemia) [µM] | TGI (NCI-H460 lung) [µM] | TGI (RPMI-8226 leukemia) [µM] | TGI (RXF 393 renal) [µM] | TGI (SK-MEL-2 melanoma) [µM] | TGI (U251 CNS) [µM] | GI50 (HCT-15 colon) [µM] | GI50 (HT29 colon) [µM] | GI50 (KM12 colon) [µM] | TGI (KM12 colon) [µM] | GI50 (MOLT-4 leukemia) [µM] | GI50 (NCI-H460 lung) [µM] | GI50 (PC-3 prostate) [µM] | TGI (PC-3 prostate) [µM] | GI50 (RPMI-8226 leukemia) [µM] | GI50 (RXF 393 renal) [µM] | GI50 (U251 CNS) [µM] |
| --- | --- | --- | --- | --- | --- | --- | --- | --- | --- | --- | --- | --- | --- | --- | --- | --- | --- | --- | --- |
| COc1cc(C2C(C(=O)O)=C(COC(C)=O)Oc3cc4c(cc32)OCO4)cc(OC)c1OC (centres undefined) | > 100 | > 100 | > 100 | > 100 | > 100 | > 100 | > 100 | > 100 |  |  |  |  |  |  |  |  |  |  |  |
| CO/N=C(\C)COc1ccc2c(=O)c(-c3ccccc3)coc2c1 | > 100 | > 100 | > 100 | > 100 | > 100 | 57.8 |  | > 100 | 40.1 | > 100 | > 100 | > 100 | > 100 | 30.4 | 34.5 | > 100 | > 100 | 27.1 | 32.2 |
| CCOC(=O)C(O)(NC(=O)c1ccccc1F)C(F)(F)F (centres undefined) | > 100 | > 100 | > 100 |  | > 100 | > 100 | > 100 | > 100 |  |  |  | > 100 |  |  |  | > 100 |  |  |  |
| CCc1ccc2nc(-c3ccc(O)cc3)sc2c1 | 29.4 | 30.2 | 40.8 | 41.3 | 35.3 |  | 31.9 | 33.6 |  |  |  | 32.7 |  |  |  | 29 |  |  |  |
